Data taken from patent publication US4963581A, “Naphthopyran derivatives and use thereof” (Takeda Chemical Industries, Ltd., priority 1988, dated 1990).

Key:
[1] = molecular target: T1, Human placental aromatase (Homo sapiens, UniProt P11511); test: In vitro human placental aromatase inhibiting activity; assay type: biochemical; settings: substrate androstenedione 4 μM, 37° C., 1 hour
T1 construct: the pellet thus obtained was used as a microsome fraction; from tissue; host or cells: human placenta, microsome fraction
T1 sequence (P11511 1-503): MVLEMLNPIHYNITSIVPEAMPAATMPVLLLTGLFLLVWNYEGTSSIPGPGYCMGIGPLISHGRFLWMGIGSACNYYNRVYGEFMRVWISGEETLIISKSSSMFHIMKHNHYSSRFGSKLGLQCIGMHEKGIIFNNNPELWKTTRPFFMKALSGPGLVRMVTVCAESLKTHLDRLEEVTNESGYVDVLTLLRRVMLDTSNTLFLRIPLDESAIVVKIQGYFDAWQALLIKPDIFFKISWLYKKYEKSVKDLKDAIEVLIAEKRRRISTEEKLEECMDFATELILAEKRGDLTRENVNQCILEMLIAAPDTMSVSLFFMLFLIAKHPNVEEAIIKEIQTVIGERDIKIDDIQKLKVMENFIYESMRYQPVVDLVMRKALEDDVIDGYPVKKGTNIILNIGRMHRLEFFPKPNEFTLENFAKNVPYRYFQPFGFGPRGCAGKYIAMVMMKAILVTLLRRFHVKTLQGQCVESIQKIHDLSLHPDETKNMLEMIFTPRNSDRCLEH
Procedure: Preparation of human placental microsome:
The method of F. A. Thompson et al. [Journal of Biological Chemistry, 249, 5364 (1974)]was partly modified. Thus, a placenta was washed with cooled 0.15 M KCl and, after removal of adhering membranes and great blood vessels, minced to sufficiently small pieces by means of scissors. To the minced tissue was added cold 0.02 M phosphate buffer (pH 7.4) containing 0.25 M sucrose in an amount of 1 ml per 1 g of tissue, the mixture was homogenized with a Polytron homogenizer (30 seconds, three times, in ice) and then centrifuged at 800×g for 10 minutes, the supernatant was subjected to centrifugation at 20,000×g for 30 minutes, followed by further centrifugation at 148,000×g for 45 minutes, and the pellet thus obtained was used as a microsome fraction. The microsome obtained was suspended in the same phosphate buffer as mentioned above in a concentration corresponding to 10 g of wet placenta per ml. The suspension was stored at -80° C. and, just prior to use, diluted 5 to 6 times.
Aromatase activity measurement and inhibitory activity:
The method of F. A. Thompson et al. (vide supra) was partly modified as follows:
A reaction solution ([…]) containing 4 μM 4-androstene-3,17-dione, 140,000 dpm, 1,2[^3 H]-androstenedione, 550 μM NADPH, 20 μl of the above microsome and 5 μl of buffer or 5 μl of an inhibitor-containing solution was incubated at 37° C. for 1 hour. In this measurement system, aromatization of androstenedione gives [^3 H]--H2 O. Therefore, this reaction mixture was extracted with 0.5 ml of chloroform for separation, the aqueous layer obtained was treated with 0.25 ml of 5% active carbon for removal of free steriods and then subjected to low speed centrifugation. A scintillator (3 ml) was added to 0.2 ml of the supernatant, and the radioactivity was measured by means of a liquid scintillation counter. The percent inhibition (%) was determined by comparing the result thus obtained with the result for a control sample as obtained without adding any inhibitor. The activity was expressed in terms of IC50 (μg/ml), namely the inhibitor concentration required for 50% inhibition of the enzyme activity at the substrate (androstenedione) concentration of 4 μM.

estrogen synthesis [2] = test: Estrogen synthesis inhibition in rats (PMSG-stimulated); assay type: in vivo, young SD rats; settings: 4 days, Mean ± SD
Procedure: Groups of five young SD rats ([…], 19 days old) were used. Test groups were administered subcutaneously with the test compounds suspended in 0.2% gum arabic-containing physiological saline in a dose of 25 mg/kg or 50 mg/kg at 24-hour intervals for consecutive 4 days. Non-test groups (control groups […]) were administered with 0.2 ml of 0.2% gum arabic-containing physiological saline. On the third day after initiation of the test, a single dose of pregnant mare serum gonadotropin (PMSG) was administered subcutaneously in a dose of 10 U/rat to the test groups and to the control group 2, following the administration of the test compounds. […] The plasma samples thus obtained were subjected to plasma estradiol-17B level determination by radioimmunoassay. The uterus and ovaries were excised from each rat and, after removal of superfluous connective tissues, weighed. The results thus obtained are shown in Table 2.4-Hydroxyandrostenedione (4-OHA) was used as a reference compound for the pharmacological effect evaluation.
*P < 0.05, **P < 0.02, ***P < 0.01, ****<0.001 against PMSG group

estrogen synthesis [3] = test: as above; assay type: in vivo, young SD rats; settings: Test I, 100 mg/kg/day s.c., 4 days, Mean ± SD
[4] = tested on: various enzymes involved in the biosynthesis of steroid hormones; settings: background statement in words; cited from earlier work
[5] = Test II, 25 mg/kg/day s.c., PMSG control 240.0 ± 34.9
[6] = Test II, 50 mg/kg/day s.c., PMSG control 240.0 ± 34.9
[7] = Test I, 25 mg/kg/day s.c., PMSG control 568.6 ± 69.7
[8] = Test I, 50 mg/kg/day s.c., PMSG control 568.6 ± 69.7

## CCOC1=C(C2=C(OC)C(=O)c3cc4c(c(O)c3C2=O)C(=O)OC(C)C4)C(=O)c2c(cc3c(c2O)C(=O)OC(C)C3)C1=O (stereo not shown) [Compound 8]
[1]
  IC50: 28.7 µM

## CC1Cc2cc3c(c(O)c2C(=O)O1)C(=O)C(C1=C(O)C(=O)c2cc4c(c(O)c2C1=O)C(=O)OC(C)C4)=C(O)C3=O (stereo not shown) [Compound 3, luteosporin]
Estrogen synthesis [2]; Test II, 25 mg/kg/day s.c.
  Tissue weight, Ovaries: 21.3 ± 4.4 mg
  Tissue weight, Uterus: 93.6 ± 22.4 mg
Estrogen synthesis [2]; [5]
  Plasma estradiol-17β level: 124.1 ± 53.3 pg/mL
Estrogen synthesis [2]; Test II, 50 mg/kg/day s.c.
  Tissue weight, Ovaries: 22.6 ± 5.4 mg
  Tissue weight, Uterus: 115.4 ± 30.4 mg
Estrogen synthesis [2]; [6]
  Plasma estradiol-17β level: 71.1 ± 23.4 pg/mL
[1]
  IC50: 134 µM

## CCOC1=C(C2=C(OCC)C(=O)c3cc4c(c(O)c3C2=O)C(=O)OC(C)C4)C(=O)c2c(cc3c(c2O)C(=O)OC(C)C3)C1=O (stereo not shown) [Compound 9]
[1]
  IC50: 40.7 µM

## COC1=C(C2=C(O)C(=O)c3cc4c(c(O)c3C2=O)C(=O)OC(C)C4)C(=O)c2c(cc3c(c2O)C(=O)OC(C)C3)C1=O (stereo not shown) [Compound 2, monodemethylxanthomegnin]
Estrogen synthesis [2]; Test III, 25 mg/kg/day s.c.
  Tissue weight, Ovaries: 29.4 ± 7.5 mg
  Tissue weight, Uterus: 115.7 ± 14.0 mg
Estrogen synthesis [2]; Test III, 25 mg/kg/day s.c., PMSG control 327.9 ± 126.6
  Plasma estradiol-17β level: 189.5 ± 123.4 pg/mL
Estrogen synthesis [2]; Test III, 50 mg/kg/day s.c.
  Tissue weight, Ovaries: 29.0 ± 2.5 mg
  Tissue weight, Uterus: 106.3 ± 14.0 mg
Estrogen synthesis [2]; Test III, 50 mg/kg/day s.c., PMSG control 327.9 ± 126.6
  Plasma estradiol-17β level: 195.1 ± 79.3 pg/mL
[1]
  IC50: 24.1 µM

## CC1Cc2cc3c(c(O)c2C(=O)O1)C(=O)C(C1=C(N)C(=O)c2cc4c(c(O)c2C1=O)C(=O)OC(C)C4)=C(N)C3=O (stereo not shown) [Compound 6]
Estrogen synthesis [2]; Test I, 25 mg/kg/day s.c.
  Tissue weight, Ovaries: 32.2 ± 7.0 mg
  Tissue weight, Uterus: 102.2 ± 15.5 mg
Estrogen synthesis [2]; [7]
  Plasma estradiol-17β level: 353.2 ± 48.4 pg/mL
Estrogen synthesis [2]; Test I, 50 mg/kg/day s.c.
  Tissue weight, Ovaries: 32.0 ± 2.9 mg
  Tissue weight, Uterus: 103.1 ± 11.6 mg
Estrogen synthesis [2]; [8]
  Plasma estradiol-17β level: 326.0 ± 115.1 pg/mL
[1]
  IC50: 7.16 µM

## CNC1=C(C2=C(NC)C(=O)c3cc4c(c(O)c3C2=O)C(=O)OC(C)C4)C(=O)c2c(cc3c(c2O)C(=O)OC(C)C3)C1=O (stereo not shown) [Compound 11]
[1]
  IC50: 437 µM

## C[C@]12CCC(=O)C(O)=C1CC[C@@H]1[C@@H]2CC[C@]2(C)C(=O)CC[C@@H]12 [Compound 4-OHA, 4-Hydroxyandrostenedione, reference compound]
Estrogen synthesis [2]; Test I, 100 mg/kg/day s.c.
  Tissue weight, Ovaries: 24.3 ± 4.5 mg
  Tissue weight, Uterus: 60.6 ± 9.0 mg
Estrogen synthesis [2]; Test I, 100 mg/kg/day s.c., PMSG control 568.6 ± 69.7
  Plasma estradiol-17β level: 115.5 ± 47.4 pg/mL
Estrogen synthesis [2]; Test II, 100 mg/kg/day s.c.
  Body weight gain: 22.8 ± 1.5 g
  Tissue weight, Ovaries: 22.3 ± 3.3 mg
  Tissue weight, Uterus: 61.5 ± 8.2 mg
Estrogen synthesis [2]; Test II, 100 mg/kg/day s.c., PMSG control 240.0 ± 34.9
  Plasma estradiol-17β level: 36.1 ± 33.0 pg/mL
Estrogen synthesis [2]; Test III, 100 mg/kg/day s.c.
  Body weight gain: 24.8 ± 0.8 g
  Tissue weight, Ovaries: 26.3 ± 1.7 mg
  Tissue weight, Uterus: 71.9 ± 8.6 mg
Estrogen synthesis [2]; Test III, 100 mg/kg/day s.c., PMSG control 327.9 ± 126.6
  Plasma estradiol-17β level: 52.3 ± 21.7 pg/mL
Estrogen synthesis [3]
  Body weight gain: 25.0 ± 1.6 g

## COC1=CC(=O)c2c(cc3c(c2O)C(=O)OC(C)C3)C1=O (stereo not shown) [Compound 14]
[1]
  IC50: 2.78 µM

## CNC1=C(C2=C(NC)C(=O)c3cc4c(c(O)c3C2=O)C(=O)OC(C)C4)C(=O)c2c(cc3c(c2O)C(=O)OC(C)C3)C1=O (stereo not shown) [Compound 12]
[1]
  IC50: 10.5 µM

## COc1cc2cc3c(c(O)c2c(O)c1C1=C(N)C(=O)c2cc4c(c(O)c2C1=O)C(=O)OC(C)C4)C(=O)OC(C)C3 (stereo not shown) [Compound 7]
Estrogen synthesis [2]; Test I, 25 mg/kg/day s.c.
  Tissue weight, Ovaries: 31.2 ± 8.5 mg
  Tissue weight, Uterus: 94.1 ± 5.5 mg
Estrogen synthesis [2]; [7]
  Plasma estradiol-17β level: 323.4 ± 161.2 pg/mL
Estrogen synthesis [2]; Test I, 50 mg/kg/day s.c.
  Tissue weight, Ovaries: 27.7 ± 2.7 mg
  Tissue weight, Uterus: 110.0 ± 14.9 mg
Estrogen synthesis [2]; [8]
  Plasma estradiol-17β level: 206.3 ± 54.8 pg/mL
[1]
  IC50: 50.4 µM

## COC1=C(C2=C(OC)C(=O)c3cc4c(c(O)c3C2=O)C(=O)OC(C)C4)C(=O)c2c(cc3c(c2O)C(=O)OC(C)C3)C1=O (stereo not shown) [Compound 1, xanthomegnin]
Estrogen synthesis [2]; Test I, 25 mg/kg/day s.c.
  Body weight gain: 22.4 ± 3.1 g
  Tissue weight, Ovaries: 23.7 ± 3.4 mg
  Tissue weight, Uterus: 88.9 ± 9.0 mg
Estrogen synthesis [2]; [7]
  Plasma estradiol-17β level: 204.7 ± 67.0 pg/mL
Estrogen synthesis [2]; Test I, 50 mg/kg/day s.c.
  Body weight gain: 21.4 ± 2.7 g
  Tissue weight, Ovaries: 25.5 ± 5.5 mg
  Tissue weight, Uterus: 91.9 ± 14.4 mg
Estrogen synthesis [2]; [8]
  Plasma estradiol-17β level: 250.9 ± 161.1 pg/mL
[1]
  IC50: 8.18 µM

## COC1=C(C2=C(OC)C(=O)c3cc4c(c(OC)c3C2=O)C(=O)OC(C)C4)C(=O)c2c(cc3c(c2OC)C(=O)OC(C)C3)C1=O (stereo not shown) [Compound 13]
[1]
  IC50: 16.9 µM

## CCOC1=C(C2=C(O)C(=O)c3cc4c(c(O)c3C2=O)C(=O)OC(C)C4)C(=O)c2c(cc3c(c2O)C(=O)OC(C)C3)C1=O (stereo not shown) [Compound 10]
[1]
  IC50: 51.2 µM

## COC1=C(c2c(OC)cc3cc4c(c(O)c3c2O)C(=O)OC(C)C4)C(=O)c2c(cc3c(c2O)C(=O)OC(C)C3)C1=O (stereo not shown) [Compound 5, viomellein]
Estrogen synthesis [2]; Test II, 25 mg/kg/day s.c.
  Body weight gain: 22.8 ± 1.8 g
  Tissue weight, Ovaries: 25.3 ± 4.9 mg
  Tissue weight, Uterus: 104.6 ± 16.6 mg
Estrogen synthesis [2]; [5]
  Plasma estradiol-17β level: 60.5 ± 51.1 pg/mL
Estrogen synthesis [2]; Test II, 50 mg/kg/day s.c.
  Body weight gain: 22.0 ± 1.2 g
  Tissue weight, Ovaries: 21.0 ± 2.5 mg
  Tissue weight, Uterus: 97.7 ± 16.0 mg
Estrogen synthesis [2]; [6]
  Plasma estradiol-17β level: 63.8 ± 24.3 pg/mL
[1]
  IC50: 130 µM

## CC1Cc2cc3c(c(O)c2C(=O)O1)C(=O)C(C1=C(O)C(=O)c2cc4c(c(O)c2C1=O)C(=O)OC(C)C4)=C(N)C3=O (stereo not shown) [Compound 4, plastatin]
Estrogen synthesis [2]; Test II, 25 mg/kg/day s.c.
  Tissue weight, Ovaries: 20.8 ± 3.9 mg
  Tissue weight, Uterus: 97.4 ± 17.8 mg
Estrogen synthesis [2]; [5]
  Plasma estradiol-17β level: 156.0 ± 47.8 pg/mL
Estrogen synthesis [2]; Test II, 50 mg/kg/day s.c.
  Tissue weight, Ovaries: 26.8 ± 4.8 mg
  Tissue weight, Uterus: 86.6 ± 9.6 mg
Estrogen synthesis [2]; [6]
  Plasma estradiol-17β level: 190.3 ± 19.9 pg/mL
[1]
  IC50: 30.2 µM

## CCC1(c2ccc(N)cc2)CCC(=O)NC1=O (stereo not shown) [Aminoglutethimide]
[4]
  inhibition of various enzymes involved in the biosynthesis of steroid hormones: inhibits various enzymes involved in the biosynthesis of steroid hormones
